Data as given in ChEMBL document CHEMBL6087390, “Pyridine and Pyrimidine hybrids as privileged scaffolds in antimalarial drug discovery: A recent development” (Bioorg Med Chem Lett, 2024).
≈ marks a conversion by molar mass, not a printed value.

How the values were obtained:
[1] = system: Plasmodium falciparum; assay: Antimalarial activity against Plasmodium falciparum Dd2 assessed as reduction in parasite growth; type: functional, organism-based
[2] = system: Plasmodium falciparum; assay: Antimalarial activity against Plasmodium falciparum NF54; type: functional, organism-based
[3] = Cytotoxicity against african green monkey Vero cells assessed as cell viability measured after 48 hrs by MTT assay; type: toxicity, cell-based, Chlorocebus sabaeus
[4] = Cytotoxicity against human HFF cells assessed as inhibition of cell viability measured after 48 hrs by MTT assay; type: toxicity, cell-based
[5] = system: Plasmodium falciparum; assay: Antimalarial activity against Plasmodium falciparum K1 assessed as reduction in parasite growth incubated for 48 hrs by SYBR Green I staining based analysis; type: functional, organism-based; conditions: K1, 48 h
[6] = system: HepG2; assay: Cytotoxicity against human HepG2 cells assessed as reduction in cell growth; type: functional
[7] = Cytotoxicity against African green monkey Vero cells assessed as reduction in cell growth measured after 72 hrs by MTT assay; type: toxicity, cell-based; conditions: African green monkey (Chlorocebus sabaeus)
[8] = system: Plasmodium falciparum; assay: Antiparasitic activity against Plasmodium falciparum 3D7 assessed as reduction in parasite growth; type: functional, organism-based
[9] = system: HepG2; assay: Cytotoxicity against human HepG2 cells assessed as reduction in cell viability measured for 48 hrs by MTT assay; type: functional
[10] = system: Plasmodium falciparum; assay: Antiplasmodial activity against multidrug resistant Plasmodium falciparum K1 assessed as reduction in parasite growth by [3H]-hypoxanthine incorporation assay; type: functional, organism-based
[11] = system: Plasmodium falciparum; assay: microbe, parasite or virus in culture; conditions: W2
Description: Antimalarial activity against Plasmodium falciparum W2 assessed as reduction in parasite growth

[12] = system: Plasmodium falciparum; assay: microbe, parasite or virus in culture; conditions: W2; remark: listed apart in the source
[13] = system: Plasmodium falciparum; assay: Antiplasmodial activity against CQ-sensitive Plasmodium falciparum NF54; type: functional, organism-based
[14] = system: Plasmodium falciparum; assay: Antiparasitic activity against Plasmodium falciparum; type: functional, organism-based
[15] = system: Plasmodium falciparum; assay: microbe, parasite or virus in culture; conditions: 3D7, 48 h

For `Cc1nc(OCc2cn(CCNc3ccnc4cc(Cl)ccc34)nn2)nc(-c2ccccc2[N+](=O)[O-])c1C(=O)OC(C)C`, the IC50 [1] was 0.99 µM, the IC50 [2] was 0.18 µM and the IC50 at 48 h ([3]; African green monkey (Chlorocebus sabaeus)) was 150 µM.
`Cc1ncc(Cn2cc(CCOC(=O)c3cccc(Cl)c3)nn2)c(N)n1` showed an IC50 at 48 h [4] greater than 200 µM.
In the case of `COC(=O)C1=C(Cn2cc(CCOc3cc(C(F)(F)F)nc4c(C(F)(F)F)cccc34)nn2)NC(=O)NC1c1ccc(F)cc1` (stereo unspecified), the IC50 [5] is reported as greater than 5 µM.
For `CCN(CC)CCCC(C)Nc1ccnc2cc(Cl)ccc12` (stereo unspecified) [CHLOROQUINE], the CC50 [6] was 45.4 µM, the CC50 at 48 h ([3]; chlorocebus sabaeus, time 48 hrs) was 393 µM and the IC50 at 72 h [7] was 907 µM.
With `Cc1ccccc1N(C)C(=O)C(c1cncnc1)N(Cc1cccc(C(F)(F)F)c1)C1CC1` (stereo unspecified) the EC50 [8] was 0.4 µM, the CC50 [9] was greater than 30 µM and the EC50 [10] was 0.79 µM.
Work on `COC(=O)C1=C(Cn2cc(COc3cc(C(F)(F)F)nc4c(C(F)(F)F)cccc34)nn2)NC(=O)NC1c1ccc(OC)cc1` (stereo unspecified) yielded an IC50 [5] greater than 5 µM.
`Cc1ncc(C(C(=O)N(C)c2ccccc2C)N(Cc2cccc(C(F)(F)F)c2)C2CC2)cn1` (stereo unspecified) gave an EC50 [8] of 8.1 µM, a CC50 [9] greater than 30 µM and an EC50 [10] of 9.8 µM.
With `Cc1nc(OCc2cn(CCCNc3ccnc4cc(Cl)ccc34)nn2)nc(-c2ccc([N+](=O)[O-])cc2)c1C(=O)OC(C)C` the IC50 [1] was 4.5 µM and the IC50 [2] was 0.04 µM.
Molecule `Cc1ncc(Cn2cc(CCOC(=O)c3ccccc3)nn2)c(N)n1` has an IC50 at 48 h [4] greater than 200 µM.
Molecule `CCN(CC)Cc1cc(Nc2ccnc3cc(Cl)ccc23)ccc1O` [AMODIAQUINE] has an IC50 [11] of 0.06 µM and an IC50 [12] of 0.07 µM.
`CC1(C)[C@@H](O)CC[C@]2(C)[C@H]3C(=O)CC4[C@@H]5C[C@@](C)(C(=O)OCc6cn(-c7ccc(C#N)nc7)nn6)CC[C@]5(C)CC[C@@]4(C)[C@]3(C)CC[C@@H]12` (stereo partly specified) showed a CC50 [6] of 290 µM and an IC50 [13] of 5.5 µM.
Molecule `COC(=O)C1=C(Cn2cc(COc3cc(C(F)(F)F)nc4c(C(F)(F)F)cccc34)nn2)NC(=O)NC1c1ccc(F)cc1` (stereo unspecified) has an IC50 [5] greater than 10 µM.
Work on `C=C[C@H]1CN2CC[C@H]1C[C@H]2[C@H](O)c1ccnc2ccc(OC)cc12` [QUININE] yielded an IC50 [12] of 0.83 µM, an IC50 [14] of 2.71 µM and an IC50 [15] of 0.26 µg/mL (≈ 0.801 µM).
